Measurements as given in ChEMBL document CHEMBL5247665, “Improved synthesis and anticancer activity of a potent neuronal nitric oxide synthase inhibitor” (Bioorg Med Chem Lett, 2023).

Experiment: Toxicity in mouse at 10 mg/kg measured after 21 days
Format: organism-based
Conditions: in vivo, 504 h, time 21 day

## CNCc1cccc(CCc2ccc3c(C)cc(N)nc3c2)c1.Cl.Cl
  Activity: Non-Toxic
